Target: hKIF18A (1-374) (Homo sapiens (Human), UniProt Q8NI77)
Test: Inhibition of KIF18A microtubule-dependent ATPase activity (ADP-Glo)
Type: biochemical
Conditions: 4 nM hKIF18A (1-374)
Procedure: Test compounds were plated in a 3× dilution scheme in a 384-well plate. Assay buffer: 80 mM PIPES (pH 6.9), 1 mM MgCl2, 75 mM KCl, 1 mM EGTA, 1 mM DTT, 0.01% BSA, 0.005% Tween-20, 1 μM Taxol in H2O. […] After incubation at room temperature for 30 min, 2.5 μL of microtubule mix was added [0.2 mg/mL pre-formed microtubules, 2.0 mM ATP in assay buffer], the plate was centrifuged for 30 s and then incubated at 28° C. for 60 min. 5 μL of Promega® ADP-Glo Max R1 was added, the plate was centrifuged for 30 s, and the mixture incubated for 4 h at room temperature. 10 μL of Promega® ADP-Glo Max R2 was added, the plate centrifuged for 30 s, and incubated for 60 min at room temperature. Luminescence was measured with an Envision plate reader, and % Inhibition was calculated for each well as: ([max−min]−[test−min])/[max−min]. IC50 values were calculated from concentration vs. % Inhibition data via a four-parameter variable slope model.

Chain of hKIF18A (1-374) (Q8NI77 1-374): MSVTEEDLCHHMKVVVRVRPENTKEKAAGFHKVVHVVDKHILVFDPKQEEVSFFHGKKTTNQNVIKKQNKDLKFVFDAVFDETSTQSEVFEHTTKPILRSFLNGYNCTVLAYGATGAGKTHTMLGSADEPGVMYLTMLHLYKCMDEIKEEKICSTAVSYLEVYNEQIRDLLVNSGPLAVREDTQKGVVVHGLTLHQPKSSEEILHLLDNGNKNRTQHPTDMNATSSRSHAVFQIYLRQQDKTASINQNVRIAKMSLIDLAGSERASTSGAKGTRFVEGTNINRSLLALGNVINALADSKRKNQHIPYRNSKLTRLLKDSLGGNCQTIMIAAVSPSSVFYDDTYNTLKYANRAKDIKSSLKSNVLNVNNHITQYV

Molecule	IC50 [nM]
O=S(=O)(CCO)Nc1ccc(-n2cc(-c3ccn(C4CCC(F)(F)CC4)n3)nn2)c(N2CCCCC2)c1 [Compound 76, N-(4-(4-(1-(4,4-difluorocyclohexyl)-1H-pyrazol-3-yl)-1H-1,2,3-triazol-1-yl)-3-(piperidin-1-yl)phenyl)-2-hydroxyethane-1-sulfonamide]	29
O=S(=O)(CCO)Nc1ccc(-n2cc(-c3ccc(C(O)C4CCCC4)o3)nn2)c(N2CCC3(CC2)CC3)c1 (stereo not drawn) [Compound 51, N-(4-(4-(5-(cyclopentyl(hydroxy)methyl)furan-2-yl)-1H-1,2,3-triazol-1-yl)-3-(6-azaspiro[2.5]octan-6-yl)phenyl)-2-hydroxyethane-1-sulfonamide]	2.8
N-(4-(4-(2-(cyclopentyloxy)-6-methylpyrimidin-4-yl)-1H-1,2,3-triazol-1-yl)-3-(6-azaspiro[2.5]octan-6-yl)phenyl)-2-hydroxyethane-1-sulfonamide [Compound 109]	8.8
Cc1cc(-c2cn(-c3ccc(NS(=O)(=O)CCO)cc3N3CCC(F)(F)CC3)nn2)nc(N2CCC(F)(F)CC2)c1 [Compound 80, N-(3-(4,4-difluoropiperidin-1-yl)-4-(4-(6-(4,4-difluoropiperidin-1-yl)-4-methylpyridin-2-yl)-1H-1,2,3-triazol-1-yl)phenyl)-2-hydroxyethane-1-sulfonamide]	13
CS(=O)(=O)Nc1ccc(-n2cc(-c3cccc(N4CCC(F)(F)CC4)n3)nn2)c(N2CCC3(CC2)CC3)n1 [Compound 46, N-(5-(4-(6-(4,4-difluoropiperidin-1-yl)pyridin-2-yl)-1H-1,2,3-triazol-1-yl)-6-(6-azaspiro[2.5]octan-6-yl)pyridin-2-yl)methanesulfonamide]	9.1
Cc1cc(-c2cn(-c3ccc(NS(=O)(=O)CCO)cc3N3CCCCC3)nn2)nc(N2CC3C(C2)C3(F)F)n1 (stereo not drawn) [Compound 74, N-(4-(4-(2-(6,6-difluoro-3-azabicyclo[3.1.0]hexan-3-yl)-6-methylpyrimidin-4-yl)-1H-1,2,3-triazol-1-yl)-3-(piperidin-1-yl)phenyl)-2-hydroxyethane-1-sulfonamide]	18
CS(=O)(=O)Nc1ccc(-n2cc(-c3cccc(N4CCOCC4)n3)nn2)c(N2CCC3(CC2)CC3)c1 [Compound 54, N-(4-(4-(6-morpholinopyridin-2-yl)-1H-1,2,3-triazol-1-yl)-3-(6-azaspiro[2.5]octan-6-yl)phenyl)methanesulfonamide]	8.3
Cc1cc(-c2nnc(-c3ccc(NS(C)(=O)=O)cc3N3CCC4(CC3)CC4)[nH]2)nc(N2CCOCC2)n1 [Compound 6, N-(4-(5-(6-methyl-2-morpholinopyrimidin-4-yl)-4H-1,2,4-triazol-3-yl)-3-(6-azaspiro[2.5]octan-6-yl)phenyl)methanesulfonamide]	25
Cc1cc(-c2cn(-c3ccc(NS(C)(=O)=O)cc3N3CCC4(CC3)CC4)nn2)nc(N2CCC(F)(F)CC2)c1 [Compound 14, N-(4-(4-(6-(4,4-difluoropiperidin-1-yl)-4-methylpyridin-2-yl)-1H-1,2,3-triazol-1-yl)-3-(6-azaspiro[2.5]octan-6-yl)phenyl)methanesulfonamide]	39
CC(C)(C)NS(=O)(=O)c1cccc(-c2cnc(-c3ccc(NS(C)(=O)=O)cc3N3CCC4(CC3)CC4)[nH]2)c1 [Compound 34, N-(tert-butyl)-3-(2-(4-(methylsulfonamido)-2-(6-azaspiro[2.5]octan-6-yl)phenyl)-1H-imidazol-5-yl)benzenesulfonamide]	74
CS(=O)(=O)Nc1ccc(-c2ncc(-c3cccc(N4CC5C(C4)C5(F)F)n3)[nH]2)c(N2CCC3(CC2)CC3)c1 (stereo not drawn) [Compound 30, N-(4-(5-(6-(6,6-difluoro-3-azabicyclo[3.1.0]hexan-3-yl)pyridin-2-yl)-1H-imidazol-2-yl)-3-(6-azaspiro[2.5]octan-6-yl)phenyl)methanesulfonamide]	21
CS(=O)(=O)Nc1ccc(-n2cc(-c3cncc(N4CCC(F)(F)CC4)n3)nn2)c(N2CCC3(CC2)CC3)c1 [Compound 63, N-(4-(4-(6-(4,4-difluoropiperidin-1-yl)pyrazin-2-yl)-1H-1,2,3-triazol-1-yl)-3-(6-azaspiro[2.5]octan-6-yl)phenyl)methanesulfonamide]	3.4
CS(=O)(=O)Nc1ccc(-n2cc(-c3cccc(N4CCC(F)(F)CC4)n3)cn2)c(N2CCC3(CC2)CC3)c1 [Compound 17, N-(4-(4-(6-(4,4-difluoropiperidin-1-yl)pyridin-2-yl)-1H-pyrazol-1-yl)-3-(6-azaspiro[2.5]octan-6-yl)phenyl)methanesulfonamide]	29
CS(=O)(=O)Nc1ccc(-n2cc(-c3csc(N4CCC(F)(F)CC4)n3)nn2)c(N2CCC3(CC2)CC3)c1 [Compound 50, N-(4-(4-(2-(4,4-difluoropiperidin-1-yl)thiazol-4-yl)-1H-1,2,3-triazol-1-yl)-3-(6-azaspiro[2.5]octan-6-yl)phenyl)methanesulfonamide]	7.2

The next lines start with the values.

IC50 [nM]	Molecule
27	Cc1cc(-c2cn(-c3ccc(NS(=O)(=O)CCCO)cc3N3CCC4(CC3)CC4)nn2)nc(N2CCC(F)(F)CC2)n1 [Compound 151, N-(4-(4-(2-(4,4-difluoropiperidin-1-yl)-6-methylpyrimidin-4-yl)-1H-1,2,3-triazol-1-yl)-3-(6-azaspiro[2.5]octan-6-yl)phenyl)-3-hydroxypropane-1-sulfonamide]
8.5	CCS(=O)(=O)Nc1ccc(-n2cc(-c3ccc(S(=O)(=O)NC(C)(C)C)o3)nn2)c(N2CCC3(CC2)CC3)c1 [Compound 132, N-(tert-butyl)-5-(1-(4-(ethylsulfonamido)-2-(6-azaspiro[2.5]octan-6-yl)phenyl)-1H-1,2,3-triazol-4-yl)furan-2-sulfonamide]
12	CCS(=O)(=O)Nc1ccc(-n2cc(-c3cc(C)cc(C(O)C4CCC4)n3)nn2)c(N2CCC3(CC2)CC3)c1 (stereo not drawn) [Compound 133, N-(4-(4-(6-(cyclobutyl(hydroxy)methyl)-4-methylpyridin-2-yl)-1H-1,2,3-triazol-1-yl)-3-(6-azaspiro[2.5]octan-6-yl)phenyl)ethanesulfonamide]
20	O=S(=O)(CCO)Nc1ccc(-n2cc(-c3ccc(F)c(C4=CCC(F)(F)CC4)n3)nn2)c(N2CCC3(CC2)CC3)c1 [Compound 162, N-(4-(4-(6-(4,4-difluorocyclohex-1-en-1-yl)-5-fluoropyridin-2-yl)-1H-1,2,3-triazol-1-yl)-3-(6-azaspiro[2.5]octan-6-yl)phenyl)-2-hydroxyethane-1-sulfonamide]
27	O=S(=O)(CCO)Nc1ccc(-n2cc(-c3csc(N4CCC(F)(F)CC4)n3)nn2)c(N2CCCCC2)c1 [Compound 86, N-(4-(4-(2-(4,4-difluoropiperidin-1-yl)thiazol-4-yl)-1H-1,2,3-triazol-1-yl)-3-(piperidin-1-yl)phenyl)-2-hydroxyethane-1-sulfonamide]
7.3	Cc1ncc(-c2cn(-c3ccc(NS(=O)(=O)CCO)cc3N3CCC4(CC3)CC4)nn2)nc1N1CCC(F)(F)CC1 [Compound 124, N-(4-(4-(6-(4,4-difluoropiperidin-1-yl)-5-methylpyrazin-2-yl)-1H-1,2,3-triazol-1-yl)-3-(6-azaspiro[2.5]octan-6-yl)phenyl)-2-hydroxyethane-1-sulfonamide]
14	Cc1cc(-c2cn(-c3ccc(NS(=O)(=O)CCO)cc3N3CCC4(CC3)CC4)nn2)nc(CN2CC(F)(F)C2)n1 [Compound 152, N-(4-(4-(2-((3,3-difluoroazetidin-1-yl)methyl)-6-methylpyrimidin-4-yl)-1H-1,2,3-triazol-1-yl)-3-(6-azaspiro[2.5]octan-6-yl)phenyl)-2-hydroxyethane-1-sulfonamide]
42	Cn1cc(-c2cn(-c3ccc(NS(=O)(=O)CCO)cc3N3CCC4(CC3)CC4)nn2)nc1N1CCC(F)(F)CC1 [Compound 119, N-(4-(4-(2-(4,4-difluoropiperidin-1-yl)-1-methyl-1H-imidazol-4-yl)-1H-1,2,3-triazol-1-yl)-3-(6-azaspiro[2.5]octan-6-yl)phenyl)-2-hydroxyethane-1-sulfonamide]
11	CC(CO)S(=O)(=O)Nc1ccc(-n2cc(-c3cccc(N4CCC(F)(F)CC4)n3)nn2)c(N2CCC3(CC2)CC3)c1 (stereo not drawn) [Compound 85, N-(4-(4-(6-(4,4-difluoropiperidin-1-yl)pyridin-2-yl)-1H-1,2,3-triazol-1-yl)-3-(6-azaspiro[2.5]octan-6-yl)phenyl)-1-hydroxypropane-2-sulfonamide]
6	O=S(=O)(CCO)Nc1ccc(-n2cc(-c3cncc(OC4CCCC4)n3)nn2)c(N2CCC3(CC2)CC3)c1 [Compound 150, N-(4-(4-(6-(cyclpentyloxy)pyrazin-2-yl)-1H-1,2,3-triazol-1-yl)-3-(6-azaspiro[2.5]octan-6-yl)phenyl)-2-hydroxyethane-1-sulfonamide]
4.6	CCS(=O)(=O)Nc1ccc(-n2cc(-c3ccc(C(O)C4CCCC4)o3)nn2)c(N2CCC3(CC2)CC3)c1 (stereo not drawn) [Compound 123, N-(4-(4-(5-(cyclopentyl(hydroxy)methyl)furan-2-yl)-1H-1,2,3-triazol-1-yl)-3-(6-azaspiro[2.5]octan-6-yl)phenyl)ethanesulfonamide]
58	Cc1cc(-n2cc(-c3ccc(NS(=O)(=O)CCO)cc3N3CCC4(CC3)CC4)nn2)cc(N2CCC(F)(F)CC2)n1 [Compound 114]
2.8	O=S(=O)(CCO)Nc1cc(N2CCC3(CC2)CC3)c(-n2cc(-c3cncc(N4CCC(F)(F)CC4)n3)nn2)cc1F [Compound 144, N-(4-(4-(6-(4,4-difluoropiperidin-1-yl)pyrazin-2-yl)-1H-1,2,3-triazol-1-yl)-2-fluoro-5-(6-azaspiro[2.5]octan-6-yl)phenyl)-2-hydroxyethane-1-sulfonamide]

Reference: US20230382889A1 (Volastra Therapeutics, Inc., priority 2022, published 2023)
